{"source": "patent US20260234188A1", "about": "“CHEMOKINE-BINDING PEPTIDES” (Oxford University Innovation Limited, priority 2022, published 2026)", "key": {"CXCL11": {"target": "T1, CXCL11 (Homo sapiens, UniProt O14625)", "T1 construct": "purchased Peprotech", "T1 sequence (O14625 22-94)": "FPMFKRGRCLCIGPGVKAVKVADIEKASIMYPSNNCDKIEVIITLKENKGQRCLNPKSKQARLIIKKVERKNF", "assay": "CXCL11-induced activated T-cell migration, transwell assay", "assay_type": "cell-based", "conditions": "peptide 10 μM, chemokine at EC80", "protocol": "(§1) FIG. 2. […] BK1.2 is described in (Darlot, 2020). […] Chemokines used are indicated by the name, followed in parenthesis by the supplier code (P in supplier code indicates Peprotech). […] All experiments were performed at EC80 doses of indicated chemokine. Data are shown as box-whisker plots of three technical and three biological replicates. Statistically significant differences (compared to control, indicated by #), using Dunnett's test with correction for multiple comparisons, are indicated by asterisks: ****=P≤0.0001, ***=P≤0.001, **=P≤0.01, *=P≤0.05.\n(§2) Briefly, cell migration assays use THP1 cells (human monocyte) and primary human buffy coat white cells (consisting of neutrophil granulocytes, monocytes, and lymphocytes), and activated T-cells. THP1 cells and primary monocytes respond to CCL2, CCL3, CCL5, CCL8 and CXCL4, granulocytes to CXCL1 and CXCL8, activated T-cells to CXCL9/10/11. Assays are performed in 96-well Boyden chambers, and migrated cells counted and characterized using and ATTUNE Flow Cytometer as described. Triplicate assays are performed at the EC80 dose of each chemokine at 10 μM peptide concentration.\n(§3) The J:CXCR1 cell line was generated by transfecting Jurkat cells by electroporation with PvuI-linearized plasmid D1398 and selecting with blasticidin (Sigma-Aldrich, Cat #203350, […]). […] J:CXCR1 cells were cultured in RPMI-1640 media (Gibco), supplemented with 10% FBS and 5 mM L-Glutamine with blasticidin. For J:CXCR1 migration assays, 300,000 cells/well were added to the top chamber of a 3 μm Transwell insert (Corning) in 50 μL of migration media (RPMI-1640, 0.5% FBS, 4 mM L-Glutamine, 0.05% DMSO). The bottom chamber contained 150 μL of chemokine, with or without peptide. Cells were migrated at 37° C. in 5% CO2 for 4 hours. The plate was incubated on a shaking platform for 10 minutes, 800 rpm, at 37° C., and 150 μL from the bottom of the plate transferred into a U-bottom plate containing 50 μL of migration media. Cell counts were determined by Attune NxT Flow Cytometer Plate Reader (ThermoFisher), based on cell size parameters FSC-H/SSC-H. Experiments were performed in 3 technical and 3 biological replicates. THP-1 migration assays were carried out using methods known in the art. Activated T-cell assays were carried out using methods known in the art, with the following modifications in the isolation process. Peripheral blood cells were obtained from leucocyte cones (NHS Blood Transfusion Services), following which, T-cells were isolated using two rounds of human CD8+ T-cell isolation kit (480011, BioLegend). At day 10 after activation, T-cells were frozen at 20 E6 cells/ml in TexMACS medium supplemented with 10% DMSO (D2650, Sigma) in liquid nitrogen. Prior to use, activated T-cells were recovered for 24 hours in TexMACs medium at 0.3 E6 cells/ml and incubated at 37° C. in 5% CO2. Chemokine sources are described in Supplementary information Table 3. Statistical significances between control experimental groups was evaluated using Dunnett's test. IC50 experiments were performed at the EC80 dose of chemokine. EC80 was calculated by fitting a chemokine dose-response curve with 3 parameters (fixing the top to 100%). IC50 was calculated by fitting an inhibitor response curve with 4 parameters."}, "[1]": {"test_system": "panel of up to 42 human chemokines", "assay": "Phage-display next generation sequencing screen of overlapping hexadecapeptide libraries, chemokines displayed on streptavidin beads", "assay_type": "binding", "conditions": "log2E greater than 5, chemokines named by first part of UniProt Entry Name, peptides binding complement C5a (control) excluded", "outline": "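Phage-display libraries of 55662 overlapping hexadecapeptides from tick and viral chemokine-binding proteins, human chemokines and chemokine receptors screened against up to 42 human chemokines, with hits found by next-generation sequencing. Peptides mapped to parent-protein position with log2 fold enrichment; regions of interest where cumulative residue log2 E exceeds the 95% upper CI of the protein median.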"}, "CXCL10": {"target": "T2, CXCL10 (Homo sapiens, UniProt P02778)", "T2 construct": "purchased Peprotech", "T2 sequence (P02778 22-98)": "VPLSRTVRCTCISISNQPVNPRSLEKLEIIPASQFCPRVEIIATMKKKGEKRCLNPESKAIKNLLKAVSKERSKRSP", "assay": "CXCL10-induced activated T-cell migration, transwell assay", "assay_type": "cell-based", "conditions": "peptide 10 μM, chemokine at EC80", "protocol": "as §1\nFIG. 11. […] Technical replicates are shown as individual data points. […] The response curve (solid blue line) and its 95% confidence interval (grey ribbon) were calculated using a 4-parameter log-logistic plot.\nas §2, with “Triplicate assays are performed at the EC80 dose of each chemokine at 10 μM peptide concentration.” left out"}, "CXCL9": {"target": "T3, CXCL9 (Homo sapiens, UniProt Q07325)", "T3 construct": "purchased Peprotech", "T3 sequence (Q07325 23-125)": "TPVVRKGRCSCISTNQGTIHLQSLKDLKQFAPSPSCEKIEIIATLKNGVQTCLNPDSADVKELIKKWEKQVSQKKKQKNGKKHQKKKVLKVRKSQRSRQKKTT", "assay": "CXCL9-induced activated T-cell migration, transwell assay", "assay_type": "cell-based", "conditions": "peptide 10 μM, chemokine at EC80", "protocol": "as §1, §2, §3"}, "[2]": {"target": "T4, panel of 25 biotinylated chemokines (Homo sapiens, UniProt P48061)", "T4 construct": "purchased Almac or ProteinFoundry", "T4 sequence (P48061 22-89 limits assumed)": "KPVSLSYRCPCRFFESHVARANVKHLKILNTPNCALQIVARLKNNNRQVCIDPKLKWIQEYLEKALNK", "assay": "Phage-display screen of HD2 combinatorial mutagenesis library", "assay_type": "binding", "conditions": "CXCL12", "description": "FIG. 20. Phage display-combinatorial mutagenesis. FIG. 20A, Tile-plot (bottom panel) showing impact of selected HD2 mutations on Δlog 2 E for all chemokines studied. Δlog 2 E is the difference in log 2 E between the parental wild-type peptide and the mutant variant following phage-display selection. See methods for a description of the strategy used for selecting individual mutations. FIG. 20B, All possible combinations of 16 selected single mutations (coloured using the Taylor scale) at 11 residue locations were combined to create a phage-display library with 3585 mutation combinations. The library included the parental HD2 sequence and single mutations as well. Library cloning, screening and analysis was performed as described in the examples.\nCombinations of different mutations identified by saturation mutagenesis selection were then studied to see if they could result in additive or cooperative effects, allowing further evolution of peptide function in a desired direction. Traditionally, the selection of two or more mutations in combination is guided by knowledge of the structure of the protein-peptide interface. This approach works well when designing agents against a single target where the interface structure has been experimentally characterised but is challenging when designing agents active against multiple targets, where the interface structures have not been experimentally characterised. To systematically identify mutation combinations that work well against multiple structurally related targets we explored the possibility of using phage-display to select combinations of mutations that bind CC or XC classes of chemokines. […]\nAs CC and XC binding peptides appeared to have a different improving mutation spectrum we selected mutations using an algorithm that optimizes CC and XC improving mutations separately. […] The library quality was assessed by NGS AmpliconEZ (50,000 reads), and 3584 of 3585 inserts were identified. […]"}, "CXCL12": {"target": "CXCL12 (Homo sapiens, UniProt P48061)", "sequence (P48061 22-89 limits assumed)": "as above", "assay_type": "cell-based", "parameters": "activity in inhibiting migration of activated T cells in comparison to HD2_Y5W: dose or concentration left out as unconfirmed", "conditions": "peptides final concentration as printed, chemokine at EC80", "protocol": "FIG. 22. Effect of selected combinatorial HD2 mutations on chemotaxis. FIG. 22A. Box-whisker plot showing the effect of the exemplar single and combinatorically mutant (CM) HD2 peptides on activated-T cell (ATC) migration induced by CXCL12. All experiments were performed as at least three technical and three biological replicates, and individual data points are indicated. […] HD2SCR is a scrambled version of HD2. […] Statistically significant differences (compared to control, HD2_Y5W, coloured blue), using Dunnett's test with correction for multiple comparisons, are indicated by asterisks: ****=P≤0.0001, ***=P≤0.001, **=P≤0.01, *=P≤0.05. All comparisons were made to HD2_Y5W, as it is present in CM539, CM452, and CM304. […] Technical replicates are shown as individual data points. […] The response curve (solid blue line) and its 95% confidence interval (grey ribbon) were calculated using a 4-parameter log-logistic plot. The agonist and estimated IC50 (dotted green line) are indicated.\nas §3\nMigration assays using THP1, activated T-cell (ATC) and J:CXCR1 (Jurkat cells stably transfected with CXCR1 receptor) were performed as described previously. IC50 experiments were performed at the EC80 dose of chemokine. EC80 was calculated by fitting a chemokine dose-response curve with 3 parameters (fixing the top to 100%). IC50 was calculated by fitting an inhibitor response curve with 4 parameters. R-packages used were ggupset_0.3.0, DescTools_0.99.44, and drc_3.0-1."}, "CCL3": {"target": "T5, CCL3 (Homo sapiens, UniProt P10147)", "T5 construct": "purchased Peprotech", "T5 sequence (P10147 24-92)": "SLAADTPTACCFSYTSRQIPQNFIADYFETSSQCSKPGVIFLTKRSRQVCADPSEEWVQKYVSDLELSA", "assay": "CCL3-induced THP-1 cell migration, transwell assay", "assay_type": "cell-based", "conditions": "HD2 mutant peptides 10 μM, chemokine at EC80", "protocol": "as §1\nBriefly, cell migration assays use THP1 cells (human monocyte) and primary human buffy coat white cells (consisting of neutrophil granulocytes, monocytes, and lymphocytes), and activated T-cells. […] Assays are performed in 96-well Boyden chambers, and migrated cells counted and characterized using and ATTUNE Flow Cytometer as described. […]\nThe J:CXCR1 cell line was generated by transfecting Jurkat cells by electroporation with PvuI-linearized plasmid D1398 and selecting with blasticidin (Sigma-Aldrich, Cat #203350, 5 g/mL). […] Cell counts were determined by Attune NxT Flow Cytometer Plate Reader (ThermoFisher), based on cell size parameters FSC-H/SSC-H. Experiments were performed in 3 technical and 3 biological replicates. […] Statistical significances between control experimental groups was evaluated using Dunnett's test. […]"}, "[3]": {"test_system": "panel of 24 biotinylated chemokines", "assay": "Phage-display screen of HD2 NNK saturation mutagenesis library", "assay_type": "binding, human", "conditions": "HD2 saturation mutants; chemokines on streptavidin beads; UniProt entry names"}}, "note": "Entries after “also recorded” stand apart in the source; their conditions may differ. Ends that are not written are not given here.", "data": [{"substance": "CVEITYFGDFGDPSQD [EB429]", "values": [{"measurement": "inhibition of cell migration", "setting": "CXCL11", "result": "inhibit cell migration"}, {"measurement": "Chemokines Bound", "setting": "[1]", "result": "CXL10, CXL11,; also recorded: SDF1, CXL13"}, {"measurement": "inhibition of cell migration", "setting": "CXCL10", "result": "inhibit cell migration"}, {"measurement": "inhibition of cell migration", "setting": "CXCL9", "result": "inhibit cell migration"}]}, {"substance": "DDDDWDAYAPIWCYFT [CM452]", "values": [{"measurement": "binding in phage display", "setting": "[2]", "result": "enhanced binding"}, {"measurement": "activity in inhibiting migration of activated T cells in comparison to HD2_Y5W", "setting": "CXCL12", "result": "significantly enhanced activity"}]}, {"substance": "DDDDWDDYAPITCYFD [CM539]", "values": [{"measurement": "binding in phage display", "setting": "[2]", "result": "enhanced binding"}, {"measurement": "activity in inhibiting migration of activated T cells in comparison to HD2_Y5W", "setting": "CXCL12", "result": "significantly enhanced activity"}]}, {"substance": "DEDDWDAYAPIWCYFT-NH2 [CM304, DEDDWDAYAPIWCYFT]", "values": [{"measurement": "binding in phage display", "setting": "[2]", "result": "enhanced binding"}, {"measurement": "activity in inhibiting migration of activated T cells in comparison to HD2_Y5W", "setting": "CXCL12", "result": "significantly enhanced activity"}]}, {"substance": "EEDDYTAYAPLWCYFT [HD2_W12]", "values": [{"measurement": "chemotaxis compared with the parental HD2 peptide", "setting": "CCL3", "result": "significant reduction in chemotaxis"}, {"measurement": "Chemokines Bound log2E 1-5", "setting": "[3]", "result": "CCL1, CCL15, CCL17, CCL18,; also recorded: CCL19, CCL20, CCL22, CCL25,; also recorded: CCL28, CCL4, X3CL1, SDF1,; also recorded: CXL14"}, {"measurement": "Chemokines Bound log2E > 5", "setting": "[3]", "result": "CCL3"}]}]}
